Measured values as given in ChEMBL document CHEMBL3751690, “Oxidative burst inhibition, cytotoxicity and antibacterial acriquinoline alkaloids from Citrus reticulate (Blanco)” (Bioorg Med Chem Lett, 2016).

What was measured:
[1] = Inhibition of serum-opsonized zymosan-induced oxidative burst in whole blood (unknown origin); format: functional, tissue-based
[2] = Cytotoxicity against human PC3 cells after 3 days by MTT assay; format: functional, cell-based; conditions: PC-3, 72 h
Bacillus subtilis = experiment: Antimicrobial activity against Bacillus subtilis after 48 hrs by paper disk diffusion assay; format: functional
Staphylococcus aureus = experiment: Antimicrobial activity against Staphylococcus aureus after 48 hrs by paper disk diffusion assay; format: functional
Escherichia coli = experiment: Antimicrobial activity against Escherichia coli after 48 hrs by paper disk diffusion assay; format: functional
Rhizomucor miehei = experiment: Antimicrobial activity against Mucor miehei after 48 hrs by paper disk diffusion assay; format: functional
Candida albicans = experiment: Antimicrobial activity against Candida albicans after 48 hrs by paper disk diffusion assay; format: functional
Aphanomyces cochlioides = experiment: Antimicrobial activity against Aphanomyces cochlioides after 48 hrs by paper disk diffusion assay; format: functional
Globisporangium ultimum = experiment: Antimicrobial activity against Pythium ultimum after 48 hrs by paper disk diffusion assay; format: functional
Rhizoctonia solani = experiment: Antimicrobial activity against Rhizoctonia solani after 48 hrs by paper disk diffusion assay; format: functional

Row | SMILES | IC50 [1] [µM] | MIC (Bacillus subtilis) [µg/mL] | MIC (Staphylococcus aureus) [µg/mL] | MIC (Escherichia coli) [µg/mL] | MIC (Rhizomucor miehei) [µg/mL] | MIC (Candida albicans) [µg/mL] | MIC (Aphanomyces cochlioides) [µg/mL] | MIC (Globisporangium ultimum) [µg/mL] | MIC (Rhizoctonia solani) [µg/mL] | IC50 [2] [µM]
1 | Cc1cc2c3c(ccc(=O)n3C(O)(c3c(O)ccc4c(=O)c5c(O)cc6c(c5n(C)c34)C=CC(C)(C)O6)C2=O)c1 (configuration not stated) | 17.2 | > 1 | > 1 | > 1 | > 1 | > 1 | > 1 | > 1 | > 1 | 71.5
2 | CC1(C)C=Cc2c(cc(O)c3c(=O)cc(-c4ccc(O)cc4)oc23)O1 [ATALANTOFLAVONE] | 10.5 | > 1 | > 1 | > 1 | > 1 | > 1 | > 1 | > 1 | > 1 | 55.6
3 | COc1ccc2c(=O)c3c(O)cc4c(c3n(C)c2c1C1(O)C(=O)c2cc(C)cc3ccc(=O)n1c23)C=CC(C)(C)O4 (configuration not stated) | 20.1 | > 1 | > 1 | > 1 | > 1 | > 1 | > 1 | > 1 | > 1 | 75.8
4 | COc1cccc2c1C(=O)c1c(O)c3c(c(O)c1C2=O)C[C@@](O)(C(=O)CO)C[C@@H]3O[C@H]1C[C@H](N)[C@H](O)[C@H](C)O1 [DOXORUBICIN] |  |  |  |  |  |  |  |  |  | 0.9
5 | COc1cc(O)c(C=O)cc1OC | 16.4 | > 1 | > 1 | > 1 | > 1 | > 1 | > 1 | > 1 | > 1 | 60.1
6 | COc1cccc2c(=O)c3c(O)cc4c(c3n(C)c12)C=CC(C)(C)O4 | 4.5 | > 1 | > 1 | > 1 | > 1 | > 1 | > 1 | > 1 | > 1 | 70

Now from value to compound, other results behind:

Row | IC50 [1] [µM] | MIC (Bacillus subtilis) [µg/mL] | MIC (Staphylococcus aureus) [µg/mL] | MIC (Escherichia coli) [µg/mL] | MIC (Rhizomucor miehei) [µg/mL] | MIC (Candida albicans) [µg/mL] | MIC (Aphanomyces cochlioides) [µg/mL] | MIC (Globisporangium ultimum) [µg/mL] | MIC (Rhizoctonia solani) [µg/mL] | SMILES | IC50 [2] [µM]
7 | 11.2 |  |  |  |  |  |  |  |  | CC(C)Cc1ccc(C(C)C(=O)O)cc1 (configuration not stated) [IBUPROFEN] | 
8 | 11.4 | > 1 | > 1 | > 1 | > 1 | > 1 | > 1 | > 1 | > 1 | COc1cc2ccc(=O)oc2cc1OC [SCOPARONE] | 54.4
9 | 18.3 | > 1 | > 1 | > 1 | > 1 | > 1 | > 1 | > 1 | > 1 | COc1cc2oc(=O)ccc2cc1CC=C(C)C [SUBEROSIN] | 51.3
10 | 9.4 | > 1 | > 1 | > 1 | > 1 | > 1 | > 1 | > 1 | > 1 | COc1c2ccoc2c(OC)c2oc(=O)ccc12 [ISOPIMPINELLIN] | 99.8
